Reference: US10752632B2, “6-fluoro 2-methylbenzo[d]thiazol-5-yl compounds” (Eli Lilly and Company, priority 2018, dated 2020)

molecular target: full-length human O-GlcNAc-β-N-acetylglucosaminidase (OGA) (Homo sapiens (Human), UniProt O60502); test: In Vitro Human OGA Enzyme Assay; type: biochemical; conditions: His-OGA enzyme, FD-GlcNAc substrate 6.7 μM, 30 min pre-incubation, 60 min at room temperature, pH 7
Experimental: In Vitro Human OGA Enzyme Assay
The nucleotide sequence encoding full-length human O-GlcNAc-β-N-acetylglucosaminidase (NM_012215) is inserted into pFastBac1 (Invitrogen) vector with an N-terminal poly-histidine (HIS) tag. Baculovirus generation is carried out according to the Bac-to-Bac Baculovirus Expression system (Invitrogen) protocol. Sf9 cells are infected at 1.5×10^6 cells/mL using 10 mL of P1 virus per Liter of culture and incubated at 28° C. for 48 hrs. Cells are spun down, rinsed with PBS and the pellets stored at −80° C. The above OGA protein (His-OGA) is purified as follows: 4 L of cells are lysed in 200 mL of buffer containing 50 mM Tris, pH 8.0, 300 mM NaCl, 10% glycerol, 10 mM imidazole, 1 mM dithiothreitol (DTT), 0.1% Triton™ X-100, 4 tablets of protease inhibitors (complete EDTA-Free, Roche) for 45 min at 4° C. This cell lysate is then spun for 40 min at 16500 rpm at 4° C., and supernatant incubated with 6 mL of Ni-NTA resin (nickel-nitrilotriacetic acid) for 2 h at 4° C.
Resin is then packed onto column and washed with 50 mM Tris, pH 8.0, 300 mM NaCl, 10% glycerol, 10 mM imidazole, 0.1% Triton™ X-100, 1 mM DTT, followed by 50 mM Tris, pH 8.0, 150 mM NaCl, 10 mM imidazole, 10% glycerol, 1 mM DTT. The proteins are eluted with 50 mM Tris, pH 8.0, 150 mM NaCl, 300 mM imidazole, 10% glycerol, 1 mM DTT. Pooled His-OGA containing fractions are concentrated to 6 ml and loaded onto Superdex75 (16/60). The protein is eluted with 50 mM Tris, pH 8.0, 150 mM NaCl, 10% glycerol, 2 mM DTT. Fractions containing His-OGA are pooled and protein concentration measured with BCA ([…]).
The OGA enzyme catalyses the removal of O-GlcNAc from nucleocytoplasmic proteins. To measure this activity Fluorescein di-N-acetyl-β-N-acetyl-D-glucosaminide (FD-GlcNAc, Kim, Eun Ju; Kang, Dae Ook; Love, Dona C.; Hanover, John A. Carbohydrate Research (2006), 341(8), 971-982) is used as a substrate at a final concentration of 6.7 μM. This fluorogenic substrate becomes fluorescent upon cleavage by OGA, so that the enzyme activity can be measured by the increase in fluorescence detected at 535 nm (excitation at 485 nm).
The assay buffer is prepared to give a final concentration of 50 mM […], 0.01% bovine serum albumin and 0.01% Triton™ X-100 in water, at pH 7. Compounds to be tested are diluted in pure dimethyl sulfoxide (DMSO) using ten point concentration response curves. Maximal compound concentration in the reaction mixture is 30 or 1 μM. Compounds at the appropriate concentration are pre-incubated with OGA enzyme for 30 minutes before the reaction is started by the addition of substrate. The final enzyme concentration is 3.24 nM or 0.5 nM, for the 30 or 1 μM maximal compound concentration, respectively. Reactions are allowed to proceed for 60 min at room temperature. Then, without stopping the reaction, fluorescence is read. IC50 values are calculated by plotting the normalized data vs. log of the compound and fitting the data using a four parameter logistic equation.
The compounds of Examples 1 through 6 were tested essentially as described above.

Chain of full-length human O-GlcNAc-β-N-acetylglucosaminidase (OGA) (O60502 whole entry): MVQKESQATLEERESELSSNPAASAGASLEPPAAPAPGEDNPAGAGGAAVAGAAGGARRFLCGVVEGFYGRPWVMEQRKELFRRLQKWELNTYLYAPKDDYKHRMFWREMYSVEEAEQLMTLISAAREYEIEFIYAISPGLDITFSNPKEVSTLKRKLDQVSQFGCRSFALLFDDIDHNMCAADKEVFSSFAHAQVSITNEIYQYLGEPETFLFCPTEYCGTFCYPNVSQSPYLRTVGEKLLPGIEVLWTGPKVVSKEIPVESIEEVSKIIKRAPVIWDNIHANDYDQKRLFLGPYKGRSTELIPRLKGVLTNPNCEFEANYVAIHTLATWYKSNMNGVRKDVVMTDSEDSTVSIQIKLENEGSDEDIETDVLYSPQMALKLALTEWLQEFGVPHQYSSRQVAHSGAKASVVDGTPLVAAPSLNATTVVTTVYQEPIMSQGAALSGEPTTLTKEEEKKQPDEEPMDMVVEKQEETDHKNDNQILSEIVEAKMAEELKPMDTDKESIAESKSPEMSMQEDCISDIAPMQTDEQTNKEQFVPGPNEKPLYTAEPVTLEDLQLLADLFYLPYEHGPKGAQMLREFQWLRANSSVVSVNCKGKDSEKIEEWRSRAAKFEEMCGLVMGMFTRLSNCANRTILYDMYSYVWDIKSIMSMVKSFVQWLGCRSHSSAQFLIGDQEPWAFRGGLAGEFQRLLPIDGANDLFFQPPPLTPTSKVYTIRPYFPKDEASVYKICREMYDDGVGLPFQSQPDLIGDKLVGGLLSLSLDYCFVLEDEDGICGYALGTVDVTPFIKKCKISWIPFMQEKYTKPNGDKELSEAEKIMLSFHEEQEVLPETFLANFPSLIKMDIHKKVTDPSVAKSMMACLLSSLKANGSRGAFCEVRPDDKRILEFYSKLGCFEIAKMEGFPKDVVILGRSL

| IC50 | Structure (SMILES) |
| --- | --- |
| 0.214 ± 0.037 nM | CC(=O)N1Cc2ccc(O[C@@H]3C[C@H](C)N(Cc4cc5nc(C)sc5cc4F)C3)nc2C1 [Example 2, 1-(2-(((3R,5S)-1-((6-fluoro-2-methylbenzo[d]thiazol-5-yl)methyl)-5-methylpyrrolidin-3-yl)oxy)-5,7-dihydro-6H-pyrrolo[3,4-b]pyridin-6-yl)ethan-1-one] |
| 0.385 ± 0.088 nM | CC(=O)N1Cc2ccc(O[C@@H]3C[C@H](C)N([C@@H](C)c4cc5nc(C)sc5cc4F)C3)nc2C1 [Example 6, 1-[2-[(3R,5S)-1-[(1S)-1-(6-fluoro-2-methyl-1,3-benzothiazol-5-yl)ethyl]-5-methyl-pyrrolidin-3-yl]oxy-5,7-dihydropyrrolo[3,4-b]pyridin-6-yl]ethanone] |
| 0.465 ± 0.224 nM | CC(=O)N1Cc2cnc(O[C@@H]3C[C@H](C)N(Cc4cc5nc(C)sc5cc4F)C3)nc2C1 [Example 1, 1-(2-(((3R,5S)-1-((6-fluoro-2-methylbenzo[d]thiazol-5-yl)methyl)-5-methylpyrrolidin-3-yl)oxy)-5,7-dihydro-6H-pyrrolo[3,4-d]pyrimidin-6-yl)ethan-1-one] |

Second part, the compound before the results:

| Structure (SMILES) | IC50 |
| --- | --- |
| CC(=O)N1Cc2cc(O[C@@H]3C[C@H](C)N(Cc4cc5nc(C)sc5cc4F)C3)cnc2C1 [Example 4, 1-[3-[(3R,5S)-1-[(6-fluoro-2-methyl-1,3-benzothiazol-5-yl)methyl]-5-methyl-pyrrolidin-3-yl]oxy-5,7-dihydropyrrolo[3,4-b]pyridin-6-yl]ethanone] | 0.592 ± 0.068 nM |
| CC(=O)N1Cc2cnc(O[C@@H]3C[C@H](C)N(Cc4cc5nc(C)sc5cc4F)C3)cc2C1 [Example 3, 1-[6-[(3R,5S)-1-[(6-fluoro-2-methyl-1,3-benzothiazol-5-yl)methyl]-5-methyl-pyrrolidin-3-yl]oxy-1,3-dihydropyrrolo[3,4-c]pyridin-2-yl]ethanone] | 0.782 ± 0.087 nM |
| CC(=O)N1Cc2cnc(O[C@@H]3C[C@H](C)N([C@@H](C)c4cc5nc(C)sc5cc4F)C3)nc2C1 [Example 5, 1-[2-[(3R,5S)-1-[(1S)-1-(6-fluoro-2-methyl-1,3-benzothiazol-5-yl)ethyl]-5-methyl-pyrrolidin-3-yl]oxy-5,7-dihydropyrrolo[3,4-d]pyrimidin-6-yl]ethanone] | 0.495 ± 0.109 nM |
